From patent publication US6143769A, “Phenylacetic acid benzylamides” (Karl Thomae GmbH, priority 1983, dated 2000)

Assays:
clinical = conditions: human, plasma, 1 mg
Experimental: More specifically, the studies which follow were carried out on healthy male volunteers in whom the levels of glucose and active substance in the course of time were determined:
In the interests of more precise clarification, study 5 was carried out (randomised, open, crossover). […] 2 hours after administration a standard breakfast (B) was eaten, 5 hours after administration a standard lunch (L) was eaten and 10 hours after administration a standard dinner (D) was eaten. Blood samples were taken at different times. The glucose concentrations were measured in the plasma as in study 1. […] The plasma concentrations of AG-EE 624 ZW were calculated as the difference between the two concentrations found:

glucose = test: Study 3: whole blood glucose, single fasting test subject, crossover; type: in vivo, human

Compound: CCOc1cc(CC(=O)NC(CC(C)C)c2ccccc2N2CCCCC2)ccc1C(=O)O (racemic) [AG-EE 388 ZW, 2-ethoxy-4-[N-[1-(2-piperidino-phenyl)-3-methyl-1-butyl]aminocarbonylmethyl]-benzoic acid]
- concentration at 0.08 h (clinical; iv): 33.3 ng/mL
- concentration at 0.17 h (clinical; iv): 74.8 ng/mL
- concentration at 0.25 h (clinical; iv): 104 ng/mL
- concentration at 0.28 h (clinical; iv): 102 ng/mL
- concentration at 0.33 h (clinical; iv): 85.6 ng/mL
- concentration at 0.42 h (clinical; iv): 69.6 ng/mL
- concentration at 0.5 h (clinical; iv): 60.1 ng/mL
- concentration at 0.75 h (clinical; iv): 44.2 ng/mL
- concentration at 1 h (clinical; iv): 35.8 ng/mL
- concentration at 1.25 h (clinical; iv): 31.4 ng/mL
- concentration at 1.5 h (clinical; iv): 27 ng/mL
- concentration at 2 h (clinical; iv): 21 ng/mL
- concentration at 2.5 h (clinical; iv): 17.6 ng/mL
- concentration at 3 h (clinical; iv): 13.5 ng/mL
- concentration at 4 h (clinical; iv): 9.4 ng/mL
- concentration at 5 h (clinical; iv): 7 ng/mL
- concentration at 6 h (clinical; iv): 4 ng/mL
- concentration at 9 h (clinical; iv): 1.5 ng/mL
- concentration at 0.5 h (clinical; po): 35.1 ng/mL
- concentration at 0.75 h (clinical; po): 40.2 ng/mL
- concentration at 1 h (clinical; po): 39.1 ng/mL
- concentration at 1.5 h (clinical; po): 30.8 ng/mL
- concentration at 2 h (clinical; po): 24 ng/mL
- concentration at 3 h (clinical; po): 14.8 ng/mL
- concentration at 4 h (clinical; po): 8.7 ng/mL
- concentration at 5 h (clinical; po): 5.6 ng/mL
- concentration at 6 h (clinical; po): 3.5 ng/mL
- concentration at 9 h (clinical; po): 1.8 ng/mL
- Time of maximum blood sugar reduction (glucose; 2 mg): 2.0 h
- Glucose, deviation against t = 0 (glucose; 2 mg capsule, 0 h): 0%
- Glucose, deviation against t = 0 (glucose; 2 mg, 0.50 h): 0%
- Glucose, deviation against t = 0 (glucose; 2 mg, 0.75 h): 0%
- Glucose, deviation against t = 0 (glucose; 2 mg, 1.00 h): -5%
- Glucose, deviation against t = 0 (glucose; 2 mg, 1.25 h): -12%
- Glucose, deviation against t = 0 (glucose; 2 mg, 1.50 h): -18%
- Glucose, deviation against t = 0 (glucose; 2 mg, 1.75 h): -23%
- Glucose, deviation against t = 0 (glucose; 2 mg, 2.00 h): -29%
- Glucose, deviation against t = 0 (glucose; 2 mg, 2.50 h): -27%
- Glucose, deviation against t = 0 (glucose; 2 mg, 3.00 h): -21%
- Glucose, deviation against t = 0 (glucose; 2 mg, 4.00 h): -17%
- Glucose, deviation against t = 0 (glucose; 2 mg, 5.00 h): -17%
- Glucose, deviation against t = 0 (glucose; 2 mg, 6.00 h): -16%
- Maximum lowering of blood glucose (glucose; 4 mg): -38%
- Onset of effect (glucose; 4 mg): about 1.0 hour
- Time of maximum blood sugar reduction (glucose; 4 mg): 2.0 h
- Glucose, deviation against t = 0 (glucose; 4 mg capsule, 0 h): 0%
- Glucose, deviation against t = 0 (glucose; 4 mg, 0.50 h): -3%
- Glucose, deviation against t = 0 (glucose; 4 mg, 0.75 h): -1%
- Glucose, deviation against t = 0 (glucose; 4 mg, 1.00 h): -7%
- Glucose, deviation against t = 0 (glucose; 4 mg, 1.25 h): -15%
- Glucose, deviation against t = 0 (glucose; 4 mg, 1.50 h): -21%
- Glucose, deviation against t = 0 (glucose; 4 mg, 1.75 h): -32%
- Glucose, deviation against t = 0 (glucose; 4 mg, 2.00 h): -38%
- Glucose, deviation against t = 0 (glucose; 4 mg, 2.50 h): -34%
- Glucose, deviation against t = 0 (glucose; 4 mg, 3.00 h): -28%
- Glucose, deviation against t = 0 (glucose; 4 mg, 3.50 h): -24%
- Glucose, deviation against t = 0 (glucose; 4 mg, 4.00 h): -26%
- Glucose, deviation against t = 0 (glucose; 4 mg, 5.00 h): -24%
- Glucose, deviation against t = 0 (glucose; 4 mg, 6.00 h): -23%
- Glucose, deviation against t = 0 (glucose; 4 mg, 7.00 h): -20%
- Glucose, deviation against t = 0 (glucose; 4 mg, 8.00 h): -25%
